Experimental data published in ChEMBL document CHEMBL1201862, “PubChem BioAssay data set” (2004).
The source made the active and inactive calls. No stated cut-off is given here; in the data, actives have a measured IC50 and inactives only a lower limit.

Molecular target: Envelope glycoprotein gp160 (Human immunodeficiency virus 1, UniProt Q6QLK5)
Test: cell-free HIV fusion peptide-binding blockers – biochemical, uHTS, fluorescence dequenching, […] (AID 1986)

Sequence of Envelope glycoprotein gp160 (Q6QLK5 whole entry, the tested form may be a part): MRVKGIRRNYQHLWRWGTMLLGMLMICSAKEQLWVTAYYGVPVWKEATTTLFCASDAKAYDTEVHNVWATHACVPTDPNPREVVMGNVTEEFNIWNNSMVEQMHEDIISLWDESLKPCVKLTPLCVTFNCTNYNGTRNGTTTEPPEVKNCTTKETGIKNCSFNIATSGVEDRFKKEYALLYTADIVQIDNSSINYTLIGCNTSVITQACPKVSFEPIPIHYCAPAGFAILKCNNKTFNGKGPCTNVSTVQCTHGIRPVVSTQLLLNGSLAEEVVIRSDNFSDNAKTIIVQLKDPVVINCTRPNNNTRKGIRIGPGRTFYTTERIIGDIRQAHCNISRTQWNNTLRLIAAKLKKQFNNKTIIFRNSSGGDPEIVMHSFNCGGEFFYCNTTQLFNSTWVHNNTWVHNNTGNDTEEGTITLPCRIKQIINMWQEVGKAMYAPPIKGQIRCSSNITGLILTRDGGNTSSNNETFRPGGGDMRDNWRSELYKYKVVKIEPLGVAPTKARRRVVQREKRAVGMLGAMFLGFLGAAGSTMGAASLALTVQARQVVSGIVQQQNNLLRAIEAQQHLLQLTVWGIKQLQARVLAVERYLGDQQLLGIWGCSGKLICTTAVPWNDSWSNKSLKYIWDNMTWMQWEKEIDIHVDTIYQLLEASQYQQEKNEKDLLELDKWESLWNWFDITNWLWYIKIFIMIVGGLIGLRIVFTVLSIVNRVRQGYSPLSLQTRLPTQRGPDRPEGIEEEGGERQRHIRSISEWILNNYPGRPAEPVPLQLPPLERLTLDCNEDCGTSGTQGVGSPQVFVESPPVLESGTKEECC

O=C(O)/C(CC(=O)c1ccc(Cl)cc1)=N/Nc1ccc([N+](=O)[O-])cc1[N+](=O)[O-]
IC50: 20.8 µM (active)

Cc1ccc(NC(S)=NNc2ccc([N+](=O)[O-])cc2S(=O)(=O)Nc2ccccc2C(=O)O)cc1C
IC50: 7.4 µM (active)

N#C/C(=C\c1ccc(O)c([N+](=O)[O-])c1)c1nc2ccccc2s1
IC50: 25.2 µM (active)

CC(C)CS(=O)(=O)C1=NN2C(=N)/C(=C\c3ccc(OC(=O)c4ccco4)cc3)C(=O)N=C2S1
IC50: 12.8 µM (active)
